The values below are quoted from earlier work in patent US20250375409A1, “Treatment of REM Behavior Disorder” (Vanda Pharmaceuticals Inc., priority 2024, published 2025).

For data set [1] the following is noted: following an oral dose; large first pass effect.

Turning to `CCC(=O)NCC[C@@H]1CCc2ccc3c(c21)CCO3` [ramelteon], in data set [1], the mean systemic availability result is “less than 2%”. Under “Esaki et al., 12 patients with idiopathic RBD, 8 mg given 30 minutes before bedtime”, the “RBD outcome in open label trial” value is given as “trend towards improvement”. Moreover, the “RBD symptoms, including the RBD severity scale (RBDSS)” value (Nomura et al. 2013, 8 mg, two patients with RBD in association with Parkinsonian syndromes) is “improvement of their RBD symptoms”. Moreover, the “RBD outcome in patients with Parkinson's disease” value (patients with Parkinson's disease, with or without RBD, after treatment) was “statistically significant RBD improvement”.
